Values joined by “and” are separate entries in the source; they are usually repeats but may differ in a detail not shown here. Equal entries are not always repeated. Where two headings read alike, the source gives them in different places.
Key:
MhPA14 [1] = target: T1, MhPA14 (Marinobacter hydrocarbonoclasticus, UniProt A0ABF7PGZ6); assay: Isothermal titration calorimetry (ITC); assay type: binding; conditions: 30°C; for Kd: 400 μM MhPA14, 8 mM sugar
Description: Isothermal calorimetric titration (ITC) measurements were performed using a MicroCal VP-ITC calorimeter (Malvern) set at 30°C. […] Sugars were added from the computer-controlled rotating syringe (400 RPM) at 5-min intervals into the MhPA14 solution for a total of 50 injections. The data were analyzed by Origin software Version 5.0 (Malvern).

MhPA14 [2] = target: T1, MhPA14; assay: Superdex 200 column affinity test (gradient elution of bound MhPA14); assay type: binding; conditions: increasing gradient, 0-55 mM glucose or 0-5 mM EDTA over 45 min
Description: A Superdex 200 10/300 GL column (GE Healthcare) was used to probe the resin-binding ability of MhPA14. Approximately 1 mg of MhPA14 was loaded onto the column and washed with 3 column volumes of Protein Buffer. An increasing gradient of either glucose or EDTA was then implemented, rising from 0 mM– 55 mM glucose or 0 mM– 5 mM EDTA over 45 min.

MhPA14 [3] = target: T1, MhPA14; assay: Fungal, bacterial and plant polysaccharide array set 2 (Imperial College) probed with GFP_MhPA14; assay type: binding; conditions: 50 μg/mL GFP_MhPA14, anti-GFP antibody detection, average of duplicates
Description: The second array was screened at the Carbohydrate Microarray Facility (Glycosciences Laboratory, Imperial College). GFP_MhPA14 (50 μg/mL) was exposed to the ‘Fungal, bacterial and plant polysaccharide array set 2’, which contained duplicates of 20 saccharide probes extracted from a variety of organisms. An Alexa Fluora 647-tagged anti-GFP antibody was used for detection, and the duplicates were averaged to give the final RFU values.

MhPA14 [4] = target: T1, MhPA14; assay: Dextran-based (Superdex 200 resin) competitive binding assay
Description: Superdex 200 (S200) resin stored in 20% ethanol was washed twice in Protein Buffer using 6600 xg centrifugation. A millilitre of 1 mg/mL MhPA14 fused N-terminally to GFP, named GFP_MhPA14 (S1 Fig), was incubated with 300 μL of equilibrated S200 resin. Following 30 sec of vortexing and 2 min of incubation with slight mixing (nutation), the solution was centrifuged at 6600 xg for 2.5 min and the supernatant discarded. Protein buffer (1 mL) was added to the tube, and the process of mixing followed by centrifugation was repeated. The A280 of the resulting supernatant was taken to account for the minimal amount of non-sugar-related protein disassociation from the resin, and was used as a baseline reading. The supernatant was then returned into its original resin mixture tube with the addition of 1.67 μmoles (3 μL of 555 mM) of saccharide. […] After reading the A280 of the supernatant, the above process was repeated for seven tandem saccharide additions of 1.67 μmoles, as well as a final 5-μmole addition. […]
Attempts to solve MhPA14 structures with other sugars bounds–whether by soaking or co-crystallization–were fruitless. […] The amount of GFP-tagged MhPA14 released from the resin upon each sugar addition was measured using absorbance at 280 nm, which was plotted against concentration of free sugar to produce semi-quantitative binding curves (Fig 8). […]

EpA1 = target: EpA1; parameters: method as in PMID 22349222; conditions: EpA1 and its sugar of choice; cited from earlier work
[5] = fucose and glucose are averages of triplicate runs, read-out: Kd
[6] = fucose and glucose are averages of triplicate runs

T1 sequence (A0ABF7PGZ6 entry or part of it): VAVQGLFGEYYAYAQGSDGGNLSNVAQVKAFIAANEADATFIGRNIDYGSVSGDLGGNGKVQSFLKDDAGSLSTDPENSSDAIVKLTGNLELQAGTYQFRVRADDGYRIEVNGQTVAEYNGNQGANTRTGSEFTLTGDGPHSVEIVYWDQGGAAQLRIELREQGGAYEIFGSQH

OC[C@H]1OC(O)[C@H](O)[C@@H](O)[C@@H]1O (stereo partly drawn) [Glucose, glucose]
Kd (MhPA14 [1]; [5]): 137 µM | N (calculated stoichiometry) (MhPA14 [1]; [6]): 1.01 ± 0.14 | Concentration at which MhPA14 eluted from Superdex S200 column (MhPA14 [2]): 25 mM

O=C(O)CN(CCN(CC(=O)O)CC(=O)O)CC(=O)O [EDTA]
Concentration at which MhPA14 eluted from Superdex S200 column (MhPA14 [2]): 3.5 mM

pullulan
Affinity for MhPA14 on polysaccharide array (MhPA14 [3]): modest affinities

lentinan
Affinity for MhPA14 on polysaccharide array (MhPA14 [3]): strongest affinity

curdlan
Affinity for MhPA14 on polysaccharide array (MhPA14 [3]): almost no affinity

O=CC[C@@H](O)[C@H](O)[C@H](O)CO [2-deoxy-D-glucose]
Kd (MhPA14 [1]; [5]): 228 µM | N (calculated stoichiometry) (MhPA14 [1]; [6]): 0.86

CC(=O)N[C@@H]1[C@@H](O)[C@@H](O)[C@@H](CO)O[C@@H]1O [N-acetylgalactosamine]
Kdapp (apparent dissociation constant) (MhPA14 [4]; GFP_MhPA14 displaced from Superdex 200 resin by free sugar, A280 readout, triplicate, semi-quantitative): Non-binding | Binding in competitive binding assay (MhPA14 [4]; GFP_MhPA14 on Superdex 200 resin): unable to bind MhPA14 at all

O=C[C@H](O)[C@@H](O)[C@@H](O)[C@H](O)CO [Galactose]
N (calculated stoichiometry) (MhPA14 [1]; [6]): 1.00 | Kd (MhPA14 [1]; Kd): > 1000 µM | Kd (MhPA14 [1]; Kd, fucose and glucose are averages of triplicate runs): 1540 µM | Kd (EpA1): 115 µM

dextran
Affinity for MhPA14 on polysaccharide array (MhPA14 [3]): modest affinities

C[C@H](O)[C@@H](O)[C@@H](O)[C@H](O)C=O [Fucose, 6-deoxy-L-galactose]
Kd (MhPA14 [1]; [5]): 58 µM and 58.2 µM | N (calculated stoichiometry) (MhPA14 [1]; [6]): 0.98 ± 0.03
